According to patent US10941157B2, “Pesticidal compositions and uses thereof” (Gilead Apollo, LLC, priority 2015, dated 2021):
In brackets after ≈: the same amount, converted by molar mass. Where two headings read alike, the source gives them in different places. Each block holds one molecule with its values, some of them ahead of it.

Key:
Type in all cases: cell-based
Botrtyis cinerea (Bc) = experiment: In vitro pathogen growth inhibition assay, Bc; conditions: 48 h
Outline: (§1)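 Spores in 17% V8 liquid medium, or 1.5 mm Rs mycelial plugs in ¼ PDB, incubated with compound; final concentration checked by OD600 for precipitation. OD readings at 24 and 48 h, blank-subtracted, plus visual ratings; value is concentration giving ≥90% growth inhibition.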

[1] = tested on: Collectotrichum graminicola (Cg); experiment: In vitro pathogen growth inhibition assay, Cg; conditions: 48 h
Outline: as §1

Diplodia maydis (Dm) = experiment: In vitro pathogen growth inhibition assay, Dm; conditions: Stenocarpella maydis, 48 h
Outline: (§2)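 Value reported is the compound concentration reaching ≥90% growth inhibition, from OD readings at 24 and 48 h after blank subtraction, confirmed visually. Inoculum was spores diluted in 17% V8 medium, except Rs, using 1.5 mm mycelial plugs in ¼ PDB; actual compound concentration corrected via OD600.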

[2] = tested on: Fusarium moniliforme (Fm); experiment: In vitro pathogen growth inhibition assay, Fm; conditions: Fusarium verticillioides
Outline: as §1

[3] = tested on: Fusarium virguliforme (Fv); experiment: In vitro pathogen growth inhibition assay, Fv
Outline: as §2

[4] = tested on: Phytophthora capsici (Pc); experiment: In vitro pathogen growth inhibition assay, Pc; conditions: 48 h
Outline: as §2

Rhizoctonia solani (Rs) = experiment: In vitro pathogen growth inhibition assay, Rs (mycelial plugs); conditions: Rhizoctonia solani, 48 h
Outline: as §2

Septoria tritici (St) = experiment: In vitro pathogen growth inhibition assay, St; conditions: Zymoseptoria tritici, 48 h
Outline: as §1

[5] = ≥90% growth inhibition, 48 hours, vs 2% DMSO control, read-out: Compound Concentration (ppm) sufficient for ≥90% inhibition of Bc
[6] = ≥90% growth inhibition, 48 hours, vs 2% DMSO control, read-out: Compound Concentration (ppm) sufficient for ≥90% inhibition of Cg
[7] = ≥90% growth inhibition, 48 hours, vs 2% DMSO control, read-out: Compound Concentration (ppm) sufficient for ≥90% inhibition of Dm
[8] = ≥90% growth inhibition, 48 hours, vs 2% DMSO control, read-out: Compound Concentration (ppm) sufficient for ≥90% inhibition of Fm
[9] = ≥90% growth inhibition, 48 hours, vs 2% DMSO control, read-out: Compound Concentration (ppm) sufficient for ≥90% inhibition of Fv
[10] = ≥90% growth inhibition, 48 hours, vs 2% DMSO control, read-out: Compound Concentration (ppm) sufficient for ≥90% inhibition of Pc
[11] = ≥90% growth inhibition, mycelial plugs, 48 hours, vs 2% DMSO control, read-out: Compound Concentration (ppm) sufficient for ≥90% inhibition of Rs
[12] = ≥90% growth inhibition, 48 hours, vs 2% DMSO control, read-out: Compound Concentration (ppm) sufficient for ≥90% inhibition of St
[13] = concentration sufficient to ≥90% inhibition of growth, 48 hours vs 2% DMSO control, read-out: Compound Concentration (ppm) for ≥90% inhibition, Bc
[14] = concentration sufficient to ≥90% inhibition of growth, 48 hours vs 2% DMSO control, read-out: Compound Concentration (ppm) for ≥90% inhibition, Cg
[15] = concentration sufficient to ≥90% inhibition of growth, 48 hours vs 2% DMSO control, read-out: Compound Concentration (ppm) for ≥90% inhibition, Dm
[16] = concentration sufficient to ≥90% inhibition of growth, 48 hours vs 2% DMSO control, read-out: Compound Concentration (ppm) for ≥90% inhibition, Fm
[17] = concentration sufficient to ≥90% inhibition of growth, 48 hours vs 2% DMSO control, read-out: Compound Concentration (ppm) for ≥90% inhibition, Fv
[18] = concentration sufficient to ≥90% inhibition of growth, 48 hours vs 2% DMSO control, read-out: Compound Concentration (ppm) for ≥90% inhibition, Pc
[19] = concentration sufficient to ≥90% inhibition of growth, 48 hours vs 2% DMSO control, read-out: Compound Concentration (ppm) for ≥90% inhibition, Rs
[20] = concentration sufficient to ≥90% inhibition of growth, 48 hours vs 2% DMSO control, read-out: Compound Concentration (ppm) for ≥90% inhibition, St
[21] = ≥90% inhibition, 48 hours vs 2% DMSO control, read-out: Compound Concentration (ppm) sufficient for ≥90% inhibition of growth, Bc
[22] = ≥90% inhibition, 48 hours vs 2% DMSO control, read-out: Compound Concentration (ppm) sufficient for ≥90% inhibition of growth, Cg
[23] = ≥90% inhibition, 48 hours vs 2% DMSO control, read-out: Compound Concentration (ppm) sufficient for ≥90% inhibition of growth, Dm
[24] = ≥90% inhibition, 48 hours vs 2% DMSO control, read-out: Compound Concentration (ppm) sufficient for ≥90% inhibition of growth, Fm
[25] = ≥90% inhibition, 48 hours vs 2% DMSO control, read-out: Compound Concentration (ppm) sufficient for ≥90% inhibition of growth, Fv
[26] = ≥90% inhibition, 48 hours vs 2% DMSO control, read-out: Compound Concentration (ppm) sufficient for ≥90% inhibition of growth, Pc
[27] = ≥90% inhibition, mycelial plugs, 48 hours vs 2% DMSO control, read-out: Compound Concentration (ppm) sufficient for ≥90% inhibition of growth, Rs
[28] = ≥90% inhibition, 48 hours vs 2% DMSO control, read-out: Compound Concentration (ppm) sufficient for ≥90% inhibition of growth, St

SMILES: COc1ccc(F)cc1[C@H](Cn1c(=O)n(C(C)(C)C(N)=O)c(=O)c2c(C)c(-n3cccn3)sc21)OCCC#N [Compound I-190]
IC90 (Botrtyis cinerea (Bc); [13]): 10 µg/mL (≈ 18 µM) | IC90 [1, 14]: > 50 µg/mL | IC90 (Diplodia maydis (Dm); [15]): > 50 µg/mL | IC90 [2, 16]: 10 µg/mL (≈ 18 µM) | IC90 [3, 17]: 50 µg/mL (≈ 90.2 µM) | IC90 [4, 18]: > 50 µg/mL | IC90 (Rhizoctonia solani (Rs); [19]): 10 µg/mL (≈ 18 µM) | IC90 (Septoria tritici (St); [20]): > 50 µg/mL

SMILES: COc1ccc(F)cc1[C@H](Cn1c(=O)n(C(C)(C)C(=O)NC(C)C)c(=O)c2c(C)c(-n3cccn3)sc21)O[C@H]1CC[C@@H](O)CC1 [Compound I-049]
IC90 (Botrtyis cinerea (Bc); [21]): 0.4 µg/mL (≈ 0.623 µM) | IC90 [1, 22]: 50 µg/mL (≈ 77.9 µM) | IC90 (Diplodia maydis (Dm); [23]): 2 µg/mL (≈ 3.12 µM) | IC90 [2, 24]: 0.08 µg/mL (≈ 0.125 µM) | IC90 [3, 25]: 2 µg/mL (≈ 3.12 µM) | IC90 [4, 26]: > 50 µg/mL | IC90 (Rhizoctonia solani (Rs); [27]): 2 µg/mL (≈ 3.12 µM) | IC90 (Septoria tritici (St); [28]): > 50 µg/mL

SMILES: Cc1c(-n2nccn2)sc2c1c(=O)n(C(C)(C)C(=O)NC(C)C)c(=O)n2C[C@H](OC(C)C)c1cc(F)ccc1OCC#N [Compound I-070]
IC90 (Botrtyis cinerea (Bc); [21]): 0.4 µg/mL (≈ 0.654 µM) | IC90 [1, 22]: 2 µg/mL (≈ 3.27 µM) | IC90 (Diplodia maydis (Dm); [23]): 0.4 µg/mL (≈ 0.654 µM) | IC90 [2, 24]: 0.08 µg/mL (≈ 0.131 µM) | IC90 [3, 25]: 0.08 µg/mL (≈ 0.131 µM) | IC90 [4, 26]: > 50 µg/mL | IC90 (Rhizoctonia solani (Rs); [27]): 2 µg/mL (≈ 3.27 µM) | IC90 (Septoria tritici (St); [28]): ≥ 10 µg/mL

SMILES: COc1ccc(F)cc1[C@H](Cn1c(=O)n(C(C)(C)C(=O)NC(C)C)c(=O)c2c(C)c(-n3nccn3)sc21)OC1CCC(=O)CC1 [Compound I-050]
IC90 (Botrtyis cinerea (Bc); [21]): 0.08 µg/mL (≈ 0.125 µM) | IC90 [1, 22]: 2 µg/mL (≈ 3.12 µM) | IC90 (Diplodia maydis (Dm); [23]): ≥ 0.08 µg/mL | IC90 [2, 24]: 0.08 µg/mL (≈ 0.125 µM) | IC90 [3, 25]: 0.4 µg/mL (≈ 0.624 µM) | IC90 [4, 26]: 50 µg/mL (≈ 78 µM) | IC90 (Rhizoctonia solani (Rs); [27]): 0.08 µg/mL (≈ 0.125 µM) | IC90 (Septoria tritici (St); [28]): > 50 µg/mL

SMILES: COc1ccc(F)cc1[C@H](Cn1c(=O)n(C(C)(C)C(=O)NC2CC2)c(=O)c2c(C)c(-n3nccn3)sc21)OC(C)C [Compound I-078]
IC90 (Botrtyis cinerea (Bc); [21]): 2 µg/mL (≈ 3.42 µM) | IC90 [1, 22]: 2 µg/mL (≈ 3.42 µM) | IC90 (Diplodia maydis (Dm); [23]): 2 µg/mL (≈ 3.42 µM) | IC90 [2, 24]: 0.08 µg/mL (≈ 0.137 µM) | IC90 [3, 25]: 0.4 µg/mL (≈ 0.684 µM) | IC90 [4, 26]: > 50 µg/mL | IC90 (Rhizoctonia solani (Rs); [27]): 0.4 µg/mL (≈ 0.684 µM) | IC90 (Septoria tritici (St); [28]): > 50 µg/mL

SMILES: COc1ccc(F)cc1[C@H](Cn1c(=O)n(C(C)(C)C(=O)N2CCCC2)c(=O)c2c(C)c(-n3cccn3)sc21)OC(C)C [Compound I-044]
IC90 (Botrtyis cinerea (Bc); [21]): 0.4 µg/mL (≈ 0.669 µM) | IC90 [1, 22]: 0.4 µg/mL (≈ 0.669 µM) | IC90 (Diplodia maydis (Dm); [23]): 2 µg/mL (≈ 3.35 µM) | IC90 [2, 24]: 0.08 µg/mL (≈ 0.134 µM) | IC90 [3, 25]: 0.4 µg/mL (≈ 0.669 µM) | IC90 [4, 26]: > 50 µg/mL | IC90 (Rhizoctonia solani (Rs); [27]): 0.4 µg/mL (≈ 0.669 µM) | IC90 (Septoria tritici (St); [28]): > 50 µg/mL

The next lines start with the values.

IC90 (Botrtyis cinerea (Bc); [5]): 0.08 µg/mL (≈ 0.128 µM) | IC90 [1, 6]: 0.08 µg/mL (≈ 0.128 µM) | IC90 (Diplodia maydis (Dm); [7]): 2 µg/mL (≈ 3.21 µM) | IC90 [2, 8]: 0.08 µg/mL (≈ 0.128 µM) | IC90 [3, 9]: 0.08 µg/mL (≈ 0.128 µM) | IC90 [4, 10]: > 50 µg/mL | IC90 (Rhizoctonia solani (Rs); [11]): 0.08 µg/mL (≈ 0.128 µM) | IC90 (Septoria tritici (St); [12]): > 50 µg/mL
SMILES: CCc1ccc(F)cc1[C@H](Cn1c(=O)n(C(C)(C)C(=O)NC(C)C)c(=O)c2c(C)c(-n3nccn3)sc21)OCC(C)(C)C#N [Compound I-279]

IC90 (Botrtyis cinerea (Bc); [5]): 2 µg/mL (≈ 3.34 µM) | IC90 [1, 6]: 10 µg/mL (≈ 16.7 µM) | IC90 (Diplodia maydis (Dm); [7]): > 50 µg/mL | IC90 [2, 8]: 0.08 µg/mL (≈ 0.134 µM) | IC90 [3, 9]: 0.08 µg/mL (≈ 0.134 µM) | IC90 [4, 10]: > 50 µg/mL | IC90 (Rhizoctonia solani (Rs); [11]): 10 µg/mL (≈ 16.7 µM) | IC90 (Septoria tritici (St); [12]): > 50 µg/mL
SMILES: Cc1c(-n2nccn2)sc2c1c(=O)n(C(C)(C)C(=O)NC(C)C)c(=O)n2CCc1cc(F)ccc1OC1CCOCC1 [Compound I-331]

IC90 (Botrtyis cinerea (Bc); [13]): 50 µg/mL (≈ 84.9 µM) | IC90 [1, 14]: 50 µg/mL (≈ 84.9 µM) | IC90 (Diplodia maydis (Dm); [15]): > 50 µg/mL | IC90 [2, 16]: 50 µg/mL (≈ 84.9 µM) | IC90 [3, 17]: > 50 µg/mL | IC90 [4, 18]: > 50 µg/mL | IC90 (Rhizoctonia solani (Rs); [19]): 50 µg/mL (≈ 84.9 µM) | IC90 (Septoria tritici (St); [20]): > 50 µg/mL
SMILES: COc1ccc(F)cc1[C@](O)(CCO)Cn1c(=O)n(C(C)(C)C(=O)NC(C)C)c(=O)c2c(C)c(-n3nccn3)sc21 [Compound I-275]

IC90 (Botrtyis cinerea (Bc); [5]): 2 µg/mL (≈ 3.12 µM) | IC90 [1, 6]: 0.4 µg/mL (≈ 0.623 µM) | IC90 (Diplodia maydis (Dm); [7]): 2 µg/mL (≈ 3.12 µM) | IC90 [2, 8]: 0.4 µg/mL (≈ 0.623 µM) | IC90 [3, 9]: 2 µg/mL (≈ 3.12 µM) | IC90 [4, 10]: 10 µg/mL (≈ 15.6 µM) | IC90 (Rhizoctonia solani (Rs); [11]): 0.4 µg/mL (≈ 0.623 µM) | IC90 (Septoria tritici (St); [12]): > 50 µg/mL
SMILES: Cc1c(-n2nccn2)sc2c1c(=O)n(C(C)(C)C(=O)NC(C)C)c(=O)n2C[C@H](OCC(C)(C)O)c1cc(F)ccc1OCC#N [Compound I-278]

IC90 (Botrtyis cinerea (Bc); [13]): 50 µg/mL (≈ 85.1 µM) | IC90 [1, 14]: > 50 µg/mL | IC90 (Diplodia maydis (Dm); [15]): > 50 µg/mL | IC90 [2, 16]: 50 µg/mL (≈ 85.1 µM) | IC90 [3, 17]: > 50 µg/mL | IC90 [4, 18]: > 50 µg/mL | IC90 (Rhizoctonia solani (Rs); [19]): > 50 µg/mL | IC90 (Septoria tritici (St); [20]): > 50 µg/mL
SMILES: COCCO[C@@H](Cn1c(=O)n([C@@H](C)C(=O)NC(C)C)c(=O)c2c(C)c(-n3cccn3)sc21)c1cc(F)ccc1OC [Compound I-311]
